Here are results for 1 molecule from article PMC5658359, “A potent small-molecule inhibitor of the DCN1-UBC12 interaction that selectively blocks cullin 3 neddylation” (Nature Communications, 2017).

One assay deals with T1, DCN5 (Homo sapiens, UniProt Q9BTE7).
T1 construct: DCN2 (residues 62–259), DCN3 (residues 86–304), DCN4 (residues 102–292) and DCN5 (residues 47–237); His6-TEV (N, cleaved yes); made in house; host or cells: Rosetta2 cells (E. coli)
T1 sequence (Q9BTE7 47-237): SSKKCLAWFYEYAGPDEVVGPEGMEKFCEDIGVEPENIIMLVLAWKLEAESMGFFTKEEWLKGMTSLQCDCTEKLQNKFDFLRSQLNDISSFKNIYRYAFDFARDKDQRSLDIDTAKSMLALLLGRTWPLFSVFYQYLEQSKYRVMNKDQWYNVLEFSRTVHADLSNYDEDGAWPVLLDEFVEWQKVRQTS
The experiment in a line: Biochemical assays, binding of 47 to recombinant DCN5 (method not specified). The note with it: concentrations up to 10 µM.

The target of a further assay is T2, DCN3 (Homo sapiens, UniProt Q8IWE4).
T2 construct: DCN2 (residues 62–259), DCN3 (residues 86–304), DCN4 (residues 102–292) and DCN5 (residues 47–237); His6-TEV (N, cleaved yes); made in house; host or cells: Rosetta2 cells (E. coli)
T2 sequence (Q8IWE4 86-304): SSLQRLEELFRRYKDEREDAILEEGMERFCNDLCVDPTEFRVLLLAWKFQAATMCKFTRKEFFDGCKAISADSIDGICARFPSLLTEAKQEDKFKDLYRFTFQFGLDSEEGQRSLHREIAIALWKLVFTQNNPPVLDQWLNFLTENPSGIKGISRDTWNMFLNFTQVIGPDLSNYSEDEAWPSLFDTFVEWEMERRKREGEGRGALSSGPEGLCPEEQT
The experiment in a line: Biochemical assays, binding of 47 to recombinant DCN3 (method not specified). The note with it: concentrations up to 10 µM.

In another assay the target is DCN1 (Homo sapiens, UniProt Q96GG9). Description: Biotinylated protein pull-down assay, KYSE140 cell lysates. It is filed as binding. Set-up: endogenous in cells; host or cells: KYSE70; KYSE140. On the procedure:
(§1) Complexes formed between the biotinylated DI inhibitor and its targeted proteins were recovered by incubation with Streptavidin-agarose beads (Thermo Scientific Pierce, Waltham, Massachusetts). DCN1 and DCN2 proteins associated with beads were eluted by heating and detected by immunoblotting.
GAPDH was used as a loading control. […]

For the next assay, the target named is T3, DCN4 (Homo sapiens, UniProt Q92564).
T3 construct: DCN2 (residues 62–259), DCN3 (residues 86–304), DCN4 (residues 102–292) and DCN5 (residues 47–237); His6-TEV (N, cleaved yes); made in house; host or cells: Rosetta2 cells (E. coli)
T3 sequence (Q92564 102-292): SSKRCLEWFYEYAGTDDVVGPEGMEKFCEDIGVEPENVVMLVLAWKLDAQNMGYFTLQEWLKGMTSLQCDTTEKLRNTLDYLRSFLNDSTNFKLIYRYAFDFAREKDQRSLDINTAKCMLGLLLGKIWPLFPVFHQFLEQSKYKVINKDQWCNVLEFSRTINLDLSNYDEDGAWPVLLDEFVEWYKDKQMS
Description: Biochemical assays, binding of 47 to recombinant DCN4 (method not specified). The note with it: concentrations up to 10 µM.

A further assay concerns the target T4, DCN2 (Homo sapiens, UniProt Q6PH85).
T4 construct: DCN2 (residues 62–259), DCN3 (residues 86–304), DCN4 (residues 102–292) and DCN5 (residues 47–237); His6-TEV (N, cleaved yes); made in house; host or cells: Rosetta2 cells (E. coli)
The experiment in a line: Competitive FP binding assay with probe 46, DCN2. On the procedure:
The FP competitive binding experiments were performed to determine the binding affinities of all synthesized DCN1 inhibitors. […] Serial dilutions of DCN1 or DCN2 protein were mixed with the probe (46) to a final volume of 200 μl in the assay buffer (100 mM phosphate buffer, pH = 6.5, with 0.02% Tween-20 and 2% DMSO). The final probe concentration was 5 nM in both DCN1 and DCN2 assays. Plates were incubated at room temperature for 30 min with gentle shaking for equilibrium.
The IC50 and Ki values of compounds were determined in competitive binding experiments. Mixtures of compounds in DMSO (4 μl) and of pre-incubated protein/probe complex solution (196 μl) in the assay buffer were added into assay plates that were incubated at room temperature for 30 min with gentle shaking. Final concentrations of DCN1 protein and fluorescent probe (46) were 50 and 5 nM, respectively. […] FP values were measured as described above. IC50 values were determined by nonlinear regression fitting of the competition curves using the dose response inhibition equation (four parameters, variable slopes) included in the Prism/GraphPad software. K i values were calculated using the methods described earlier.

Assay [1] has as its system cellular DCN1 and DCN2 proteins. Description: Biotinylated protein pull-down assay, KYSE70 cell lysates. It is filed as binding. On the procedure: as §1

T4 sequence (Q6PH85 62-259): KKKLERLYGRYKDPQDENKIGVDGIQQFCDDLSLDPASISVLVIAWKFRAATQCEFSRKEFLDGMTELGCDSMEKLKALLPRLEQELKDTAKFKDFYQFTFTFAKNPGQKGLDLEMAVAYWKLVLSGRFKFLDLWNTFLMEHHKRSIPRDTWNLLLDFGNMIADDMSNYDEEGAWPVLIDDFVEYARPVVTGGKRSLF
Sequence of DCN1 (Q96GG9 whole entry): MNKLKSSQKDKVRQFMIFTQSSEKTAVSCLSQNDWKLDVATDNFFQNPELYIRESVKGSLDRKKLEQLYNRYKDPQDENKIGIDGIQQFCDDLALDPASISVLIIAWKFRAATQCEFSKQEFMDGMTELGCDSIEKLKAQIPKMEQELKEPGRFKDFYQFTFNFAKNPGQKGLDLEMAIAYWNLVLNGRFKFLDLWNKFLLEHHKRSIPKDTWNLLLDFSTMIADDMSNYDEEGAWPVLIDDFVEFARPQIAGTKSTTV

The term Ki denotes a measure of affinity in units of concentration, obtained from inhibition or displacement. Turning to `CCC(=O)NC(Cc1nc2ccc(C(C)C)cc2s1)C(=O)NC(CNC(=O)C1CCN(CCOCCOCCOCCNC(=O)CCCCC2SCC3NC(=O)NC32)CC1)C1CCCCC1` (stereo not drawn) [compound 47], the “binding to recombinant DCN5 (in words)” value on DCN5 is on record as “no appreciable binding”. Also, the “binding to recombinant DCN3 (in words)” value on DCN3 is given as “no appreciable binding”. For the same molecule, the “pull-down of DCN1 protein (in words)” value at DCN1 is “pulls down DCN1 protein”. Moreover, the “binding to recombinant DCN4 (in words)” value at DCN4 was “no appreciable binding”. The Ki at DCN2 is 3.9 nM. Further, the “pull-down of cellular DCN1 and DCN2 proteins (in words)” value in assay [1] is “efficiently pulls down”.
